From patent publication US12491185B2, “Inhibitors of mPTP” (NRG Therapeutics Ltd, priority 2023, dated 2025)

System: mPTP
Test: mPTP activity (Ca2+ retention) assay in isolated rat liver mitochondria
Assay type: biochemical
Details: examples tested by different contract research organisations, believed comparable
Text: Pharmacological inhibition or modulation of the mPTP can be measured in well characterised ‘Ca^2+ retention’ assays performed in isolated mitochondria. In vitro, isolated mitochondria rapidly sequester exogenous Ca^2+ until the intramitochondrial Ca^2+ concentration reaches the threshold for mPTP activation. Once the pore is activated, mitochondrial integrity is compromised and the stored Ca^2+ is released. The distribution of Ca^2+ between extra- and intra-mitochondrial compartments can be measured in real time with the use of membrane-impermeant Ca^2+ sensitive fluorescent dyes. Depending on the configuration of the assay, inhibition or modulation of the mPTP either delays the opening of the pore or increases the concentration of Ca^2+ required to induce mPTP opening.
MPTP activity was measured in mitochondria freshly isolated from female Sprague Dawley (250 to 300 gram) rat livers using the following method. Cervical dislocation was performed on the rat. The liver was then perfused in-situ with −40 ml cold Dulbecco's Phosphate Buffered Saline (DPBS) prior to dissection and transferred into 30 ml Isolation Buffer (250 mM Sucrose, 10 mM KCl, 1 mM EGTA, 1 mM EDTA, 25 mM HEPES, adjusted to pH 7.5 with 1M NaOH). Each lobe of the liver was then removed from the buffer, minced using tweezers and a scalpel into −5 mm pieces then transferred into a 50 ml Potterton dounce homogenization tube on ice containing 30 ml ice-cold centrifugation buffer (300 mM Trehalose, 25 mM HEPES, 1 mM EGTA, 1 mM EDTA, 10 mM KCl, adjusted to pH 7.5 with 1M NaOH and supplemented with 0.1% bovine serum albumin (BSA) and complete protease inhibitor cocktail (one tablet of inhibitor per 50 mls of buffer). Homogenisation was carried out using a teflon pestle at 1800 rpm. The slurry was centrifuged at 800 g for 10 min at 4° C., then the supernatant centrifuged at 10,000 g for 10 min. The pellet was washed once with FLIPR assay buffer (75 mM Mannitol, 25 mM Sucrose, 5 mM Potassium Phosphate Monobasic, 20 mM Tris base, 100 mM KCl, 0.1% BSA adjusted to pH 7.4 with 5M HCl) centrifuged again, then resuspended in FLIPR assay buffer to a concentration of 8.8 mg/ml protein.
Tested compounds (10 mM stock in DMSO) were serially diluted in DMSO in half log steps to generate 10 test concentrations (final concentrations in assay 30 μM to 1 nM). An intermediate dilution of 5 μl DMSO samples into 247 μl FLIPR assay buffer was carried out prior to transfer of 5 μl into duplicate wells of a 384 well polypropylene assay plate. Control wells were 0.5% (v/v) DMSO and 5 μM cyclosporin A.
A stock mitochondria/Fluo5N assay solution was prepared in 5.6 ml FLIPR assay buffer (at RT) supplemented with succinate disodium salt (10 mM), rotenone (1 μM), Fluo5N pentapotassium salt (2 μM) and 1 ml mitochondria suspension, then transferred (15 μl) into the assay plate containing test compounds and incubated for 10 min at RT. Assay plates were processed for fluorescence detection on either a FLIPR Tetra (Molecular Devices) or CLARIOstar (BMG) plate reader. For kinetic fluorescence detection on the FLIPR, dye fluorescence was measured every 3 sec for a total of 10 min. After 12 sec, a 2.5 μl bolus of CaCl2 (75 μM) was added from a source plate containing 675 μM CaCl2 in FLIPR assay buffer. Alternatively, the 2.5 μl addition of CaCl2 was performed using a Viaflow 384, plates were incubated at RT for 10 min, and dye fluorescence measured after 10 min on the CLARIOstar plate reader. pIC50 values for tested compounds were calculated using the fluorescence value collected at the 10 min timepoint on either plate reader, with % inhibition calculated using the DMSO control and cyclosporin A values as 0 and 100% respectively.

| Structure (SMILES) | mPTP Rat liver pIC50 |
| --- | --- |
| O=C(NC[C@H](Cc1ccc(F)c(F)c1)C1CC1)c1cncc(=O)[nH]1 [Example 151] | 5.88 |
| O=C(NC[C@H](Cc1ccc(F)cc1F)C1CC1)c1cncc(=O)[nH]1 [Example 154] | 5.54 |
| O=C(NC[C@H](Cc1cc(F)ccc1F)C1CC1)c1ccc(=O)[nH]n1 [Example 155] | 5.33 |
| O=C(NC[C@H](Cc1cc(F)ccc1F)C1CC1)c1cncc(=O)[nH]1 [Example 158] | 5.33 |
| CCc1cccc(CC2(CNC(=O)c3nn(C)c(=O)[nH]3)CCC2)c1 [Example 162, N-((1-(3-ethylbenzyl)cyclobutyl)methyl)-1-methyl-5-oxo-4,5-dihydro-1H-1,2,4-triazole-3-carboxamide] | 5.26 |
| CC[C@H](CNC(=O)c1nccc(=O)[nH]1)Cc1ccc(F)cc1F [Example 163] | 5.38 |
| CCC(CNC(=O)c1nn(C)c(=O)[nH]1)Cc1ccc(F)c(F)c1 (stereo not shown) [Example 164] | 6.56 |
| O=C(NCC1(Cc2cc(F)cc(F)c2)CCC1)c1cncc(=O)[nH]1 [Example 165] | <4.57 |
| Cc1cc(F)ccc1CC1(CNC(=O)c2cncc(=O)[nH]2)CCC1 [Example 166] | 5.7 |
| O=C(NCC1(Cc2cccc(F)c2)CCC1)c1cnn[nH]1 [Example 167] | <4.57 |
| Cc1cc(F)ccc1CC1(CNC(=O)c2nccc(=O)[nH]2)CCC1 [Example 168, N-((1-(4-fluoro-2-methylbenzyl)cyclobutyl)methyl)-6-oxo-1,6-dihydropyrimidine-2-carboxamide] | 6.07 |
| CCC(Cc1ccc(F)cc1F)CN(C)C(=O)c1nccc(=O)[nH]1 (stereo not shown) [Example 169] | <4.57 |
| O=C(NCC1(Cc2ccc(F)cc2F)CCC1)c1cnn[nH]1 [Example 170] | 5.65 |
| O=C(NCC1(Cc2cccc(F)c2)CCC1)c1nnc[nH]1 [Example 171] | 4.87 |
| CCC(CNC(=O)c1nn(C)c(=O)[nH]1)Cc1ccc2c(c1)CCO2 (stereo not shown) [Example 172] | 5.41 |
| Cn1c(C(=O)NCC2(Cc3ccc(F)cc3F)CCC2)n[nH]c1=O [Example 173, N-((1-(2,4-difluorobenzyl)cyclobutyl)methyl)-4-methyl-5-oxo-4,5-dihydro-1H-1,2,4-triazole-3-carboxamide] | <4.57 |
| O=C(NCC1(Cc2cc(F)cc(F)c2)CCC1)c1ccc(=O)[nH]n1 [Example 176] | 4.8 |
| COCc1ccccc1CC1(CNC(=O)c2nn(C)c(=O)[nH]2)CCC1 [Example 178] | <4.57 |
| O=C(NCC1(Cc2ccc(F)cc2F)CC12CC2)c1nccc(=O)[nH]1 (stereo not shown) [Example 186] | 6.58 |
| CC(CNC(=O)c1nccc(=O)[nH]1)(Cc1ccc(F)cc1F)C1CC1 (stereo not shown) [Example 187] | 6.53 |
| Cn1nc(C(=O)NCC(C)(Cc2ccc(F)cc2F)C2CC2)[nH]c1=O (stereo not shown) [Example 210, N-(2-cyclopropyl-3-(2,4-difluorophenyl)-2-methylpropyl)-1-methyl-5-oxo-4,5-dihydro-1H-1,2,4-triazole-3-carboxamide] | 6.82 |
| O=C(NCC1(Cc2ccc(F)cc2F)CC(F)C1)c1nccc(=O)[nH]1 (stereo not shown) [Example 215] | 6.34 |

Continued, values first:

| mPTP Rat liver pIC50 | Structure (SMILES) |
| --- | --- |
| <4.57 | CCC(Cc1ccc(F)cc1F)CN(C)C(=O)c1nn(C)c(=O)[nH]1 (stereo not shown) [Example 179, N-(2-(2,4-difluorobenzyl)butyl)-N,1-dimethyl-5-oxo-4,5-dihydro-1H-1,2,4-triazole-3-carboxamide] |
| 5.14 | O=C(NCC1(Cc2ccc(F)cc2F)CCC1)c1nnc[nH]1 [Example 180] |
| 5.02 | CSc1cccc(CC2(CNC(=O)c3nn(C)c(=O)[nH]3)CCC2)c1 [Example 182] |
| 5.4 | O=C(NC[C@H](Cc1c(F)cc(F)cc1F)C1CC1)c1nccc(=O)[nH]1 [Example 183, (R)—N-(2-cyclopropyl-3-(2,4,6-trifluorophenyl)propyl)-6-oxo-1,6-dihydropyrimidine-2-carboxamide] |
| 6.14 | O=C(NCC1(Cc2ccc(F)cc2F)CCOCC1)c1cc(=O)[nH]o1 [Example 184] |
| 6.34 | O=C(NCC1(Cc2ccc(F)cc2F)CCOCC1)c1nccc(=O)[nH]1 [Example 185] |
| 5.42 | CC(c1ccc(F)cc1F)[C@@H](CNC(=O)c1nccc(=O)[nH]1)C1CC1 (stereo partly drawn) [Example 188, N-[(2S)-2-Cyclopropyl-3-(2,4-difluorophenyl)butyl]-4-oxo-3H-pyrimidine-2-carboxamide] |
| 5.26 | O=C(NC[C@H](Cc1c(F)cccc1F)C1CC1)c1nccc(=O)[nH]1 [Example 189] |
| 5.72 | O=C(NC[C@H](Cc1ccc(F)cc1F)C1CC1)c1ncc(F)c(=O)[nH]1 [Example 192] |
| 6.36 | Cn1nc(C(=O)NCC(Cc2ccc(F)cc2Cl)C2CC2)[nH]c1=O (stereo not shown) [Example 193, N-(3-(2-chloro-4-fluorophenyl)-2-cyclopropylpropyl)-1-methyl-5-oxo-4,5-dihydro-1H-1,2,4-triazole-3-carboxamide] |
| 6.56 | CC(NC(=O)c1nn(C)c(=O)[nH]1)[C@H](Cc1ccc(F)cc1F)C1CC1 (stereo partly shown) [Example 196] |
| <4.57 | Cn1nc(C(=O)NCC2(Cc3ccc(F)cc3F)CCC(F)(F)CC2)[nH]c1=O [Example 197] |
| 5.95 | O=C(NCC1(Cc2ccc(F)cc2F)CCC1)c1nncc(=O)[nH]1 [Example 198, N-((1-(2,4-difluorobenzyl)cyclobutyl)methyl)-5-oxo-4,5-dihydro-1,2,4-triazine-3-carboxamide] |
| 6.55 | CCC(CC)(CNC(=O)c1nn(C)c(=O)[nH]1)Cc1ccc(F)cc1F [Example 199] |
| <4.57 | Cc1cc(=O)[nH]c(C(=O)NCC2(Cc3ccc(F)cc3F)CCC2)n1 [Example 200] |
| <4.57 | O=C(NCC1(Cc2ccc(F)cc2F)CCC1)c1cc(=O)[nH]s1 [Example 201] |
| 5.61 | O=C(NCC1(Cc2ccc(F)c(F)c2)CCC1)c1noc(=O)[nH]1 [Example 202, N-((1-(3,4-difluorobenzyl)cyclobutyl)methyl)-5-oxo-4,5-dihydro-1,2,4-oxadiazole-3-carboxamide] |
| 6.53 | O=C(NC[C@H](Cc1ccc(F)cc1F)C1CC1)c1noc(=O)[nH]1 [Example 204] |
| 5.24 | COCc1nnc(C(=O)NCC2(Cc3ccc(F)cc3F)CCC2)[nH]1 [Example 206] |
| <4.57 | Cn1nc(C(=O)NCC2(Cc3ccc(F)cc3F)CCC2)nc1CO [Example 208] |
| 5.96 | CC[C@H](CNC(=O)c1noc(=O)[nH]1)Cc1ccc(F)cc1F [Example 209] |
| 6.05 | O=C(NCC1(Cc2ccc(F)cc2F)CCC1)c1n[nH]c(=O)o1 [Example 211] |
| 6.18 | Cn1nc(C(=O)NC[C@H](Cc2c(F)cccc2F)C2CC2)[nH]c1=O [Example 212] |
| <4.57 | O=C(NCC1(Cc2ccc(F)cc2F)CCC1)c1cnc[nH]c1=O [Example 213, N-((1-(2,4-difluorobenzyl)cyclobutyl)methyl)-6-oxo-1,6-dihydropyrimidine-5-carboxamide] |
| <4.52 | O=C(NCC(Cc1ccc(F)cc1Cl)C1CC1)c1nccc(=O)[nH]1 (stereo not shown) [Example 214] |
| 5.56 | Cn1nc(C(=O)NCC(Cc2c(F)cc(F)cc2Cl)C2CC2)[nH]c1=O (stereo not shown) [Example 220] |
| 6.11 | Cn1nc(C(=O)NCC(Cc2ccc(Cl)cc2F)C2CC2)[nH]c1=O (stereo not shown) [Example 222] |
